# Results reported in patent US20060142348A1, “Aryl sulfonamide peri-substituted bicyclics for occlusive artery disease” (deCODE Chemistry, Inc., priority 2004, published 2006).
# Target: T1, prostanoid EP3 receptors (Homo sapiens, UniProt P43115)
# T1 sequence (P43115 1-365 isoform P43115-3): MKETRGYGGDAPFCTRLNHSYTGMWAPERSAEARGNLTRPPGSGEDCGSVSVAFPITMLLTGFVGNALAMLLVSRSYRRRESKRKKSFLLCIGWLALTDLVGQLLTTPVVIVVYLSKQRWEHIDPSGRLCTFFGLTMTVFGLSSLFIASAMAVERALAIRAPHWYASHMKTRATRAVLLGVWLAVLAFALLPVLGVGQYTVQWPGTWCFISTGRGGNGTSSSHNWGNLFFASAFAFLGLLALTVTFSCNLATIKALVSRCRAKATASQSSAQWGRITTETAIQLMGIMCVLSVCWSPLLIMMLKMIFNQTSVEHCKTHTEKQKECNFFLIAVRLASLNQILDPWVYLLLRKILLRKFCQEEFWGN
# Assay: binding on prostanoid EP3 receptors (method of Abramovitz et al.)
# Conditions: read-out: Activity (EP3 receptor binding IC50)
# Method: The compounds of the invention may be assayed for their binding on prostanoid EP3 receptors according to the method of Abramovitz et al. [Bioch. Biophys. Actas 1473, 285-293 (2000)]. All of the examples in the tables below have been synthesized, characterized and tested for EP3 receptor binding.
# The compounds of the invention were assayed for their binding on prostanoid EP3 receptors according to the method of Abramovitz et al. [Bioch. Biophys. Acta, 1473, 285-293 (2000)]. […] Compounds with IC50<1 μM are shown as +++; compounds with IC50<1-10 μM are shown as ++; and compounds with IC50>10 μM are shown as +.
row,Compound,IC50 [nM]
1,"Cc1cn(Cc2ccc(Cl)cc2Cl)c2c(-c3nnc(NC(=O)c4ccc(F)cc4F)o3)cc(F)cc12 [Compound B27, N-{5-[1-(2,4-Dichloro-benzyl)-5-fluoro-3-methyl-1H-indol-7-yl]-[1,3,4]oxadiazol-2-yl}-2,4-difluoro-benzamide]",1000 to 10000
2,"Cc1cn(Cc2ccc(Cl)cc2Cl)c2c(-c3nnc(NC(=O)c4ccc(Cl)cc4Cl)o3)cc(F)cc12 [Compound B28, 2,4-Dichloro-N-{5-[1-(2,4-dichloro-benzyl)-5-fluoro-3-methyl-1H-indol-7-yl]-[1,3,4]oxadiazol-2-yl}-benzamide]",1000 to 10000
3,"Cc1cn(Cc2ccc(Cl)cc2Cl)c2c(-c3nnc(NC(=O)c4ccc5c(c4)OC(F)(F)O5)o3)cc(F)cc12 [Compound B29, 2,2-Difluoro-benzo[1,3]dioxole-5-carboxylic acid {5-[1-(2,4-dichloro-benzyl)-5-fluoro-3-methyl-1H-indol-7-yl]-[1,3,4]oxadiazol-2-yl}-amide]",< 1000
4,"Cc1cn(Cc2ccc(Cl)cc2Cl)c2c(-c3nnc(NC(=O)c4ccco4)o3)cc(F)cc12 [Compound B30, Furan-2-carboxylic acid {5-[1-(2,4-dichloro-benzyl)-5-fluoro-3-methyl-1H-indol-7-yl]-[1,3,4]oxadiazol-2-yl}-amide]",< 1000
5,"Cc1cn(Cc2ccc(F)c(F)c2)c2c(-c3cc(NS(=O)(=O)c4cc(Cl)c(Cl)s4)no3)cc(F)cc12 [Compound B31, 4,5-Dichloro-thiophene-2-sulfonic acid {5-[1-(3,4-difluoro-benzyl)-5-fluoro-3-methyl-1H-indol-7-yl]-isoxazol-3-yl}-amide]",< 1000
6,"Cc1cn(Cc2ccc(F)c(F)c2)c2c(-c3cc(NS(=O)(=O)c4ccc(F)c(F)c4)no3)cc(F)cc12 [Compound B32, N-{5-[1-(3,4-Difluoro-benzyl)-5-fluoro-3-methyl-1H-indol-7-yl]-isoxazol-3-yl}-3,4-difluoro-benzenesulfonamide]",< 1000
7,"Cc1cn(Cc2ccc(F)c(F)c2)c2c(-c3cc(NS(=O)(=O)c4cc(F)c(F)cc4F)no3)cc(F)cc12 [Compound B33, N-{5-[1-(3,4-Difluoro-benzyl)-5-fluoro-3-methyl-1H-indol-7-yl]-isoxazol-3-yl}-2,4,5-trifluoro-benzenesulfonamide]",< 1000
8,"Cc1cn(Cc2ccc(Cl)cc2Cl)c2c(-c3cc(NS(=O)(=O)c4cc(Cl)c(Cl)s4)no3)cc(F)cc12 [Compound B34, 4,5-Dichloro-thiophene-2-sulfonic acid {5-[1-(2,4-dichloro-benzyl)-5-fluoro-3-methyl-1H-indol-7-yl]-isoxazol-3-yl}-amide]",< 1000
9,"Cc1cn(Cc2ccc(Cl)cc2Cl)c2c(-c3cc(NS(=O)(=O)c4ccc(F)c(F)c4)no3)cc(F)cc12 [Compound B35, N-{5-[1-(2,4-Dichloro-benzyl)-5-fluoro-3-methyl-1H-indol-7-yl]-isoxazo 1-3-yl}-3,4-difluoro-benzenesulfonamide]",< 1000
10,"Cc1cn(Cc2ccc(Cl)cc2Cl)c2c(-c3cc(NS(=O)(=O)c4cc(F)c(F)cc4F)no3)cc(F)cc12 [Compound B36, N-{5-[1-(2,4-Dichloro-benzyl)-5-fluoro-3-methyl-1H-indol-7-yl]-isoxazol-3-yl}-2,4,5-trifluoro-benzenesulfonamide]",< 1000

# More lines, now with the values ahead:
row,IC50 [nM],Compound
1,< 1000,"Cc1cn(Cc2ccc(Cl)cc2Cl)c2c(-c3cc(NS(=O)(=O)c4ccc(Cl)c(Cl)c4)no3)cc(F)cc12 [Compound B37, 3,4-Dichloro-N-{5-[1-(2,4-dichloro-benzyl)-5-fluoro-3-methyl-1H-indol-7-yl]-isoxazol-3-yl}-benzenesulfonamide]"
2,< 1000,"Cc1cn(Cc2ccc3ccccc3c2)c2c(-c3cc(NS(=O)(=O)c4ccc(F)c(F)c4)no3)cc(F)cc12 [Compound B38, 3,4-Difluoro-N-[5-(5-fluoro-3-methyl-1-naphthalen-2-ylmethyl-1H-indol-7-yl)-isoxazol-3-yl]-benzenesulfonamide]"
3,< 1000,"Cc1cn(Cc2ccc3ccccc3c2)c2c(-c3cc(NS(=O)(=O)c4cc(F)c(F)cc4F)no3)cc(F)cc12 [Compound B39, 2,4,5-Trifluoro-N-[5-(5-fluoro-3-methyl-1-naphthalen-2-ylmethyl-1H-indol-7-yl)-isoxazol-3-yl]-benzenesulfonamide]"
4,< 1000,"Cc1cn(Cc2ccc3ccccc3c2)c2c(-c3cc(NS(=O)(=O)c4ccc(Cl)c(Cl)c4)no3)cc(F)cc12 [Compound B40, 3,4-Dichloro-N-[5-(5-fluoro-3-methyl-1-naphthalen-2-ylmethyl-1H-indol-7-yl)-isoxazol-3-yl]-benzenesulfonamide]"
5,< 1000,Cc1cn(Cc2ccc3ccccc3c2)c2c(-c3cc(NS(=O)(=O)c4cc(Cl)c(Cl)s4)no3)cc(F)cc12 [Compound B41]
6,< 1000,"Cc1cn(Cc2ccc(Cl)cc2Cl)c2c(-c3nc(NS(=O)(=O)c4cc(Cl)c(Cl)s4)no3)cc(F)cc12 [Compound B42, 5-Dichloro-thiophene-2-sulfonic acid {5-[1-(2,4-dichloro-benzyl)-5-fluoro-3-methyl-1H-indol-7-yl]-[1,2,4]oxadiazol-3-yl}-amide]"
7,1000 to 10000,"Cn1cc(-c2csc(NS(=O)(=O)c3cc(Cl)c(Cl)s3)n2)c2c(Oc3ccc4ccccc4c3)cccc21 [Compound B43, 4,5-Dichloro-thiophene-2-sulfonic acid {4-[1-methyl-4-(naphthalen-2-yloxy)-1H-indol-3-yl]-thiazol-2-yl}-amide]"
8,1000 to 10000,"Cn1cc(-c2csc(NS(=O)(=O)c3ccc(F)c(F)c3)n2)c2c(Oc3ccc4ccccc4c3)cccc21 [Compound B44, 3,4-Difluoro-N-{4-[1-methyl-4-(naphthalen-2-yloxy)-1H-indol-3-yl]-thiazol-2-yl}-benzenesulfonamide]"
9,< 1000,"Cn1cc(-c2cc(NS(=O)(=O)c3ccc(F)c(F)c3)no2)c2c(Oc3ccc4ccccc4c3)cccc21 [Compound B45, 3,4-Difluoro-N-{5-[1-methyl-4-(naphthalen-2-yloxy)-1H-indol-3-yl]-isoxazol-3-yl}-benzenesulfonamide]"
10,< 1000,"Cc1cn(Cc2ccc(Cl)cc2Cl)c2c(-c3ccc(NS(=O)(=O)c4cc(Cl)c(Cl)s4)nc3)cc(F)cc12 [Compound B46, 4,5-Dichloro-thiophene-2-sulfonic acid {5-[1-(2,4-dichloro-benzyl)-5-fluoro-3-methyl-1H-indol-7-yl]-pyridin-2-yl}-amide]"
11,< 1000,"COc1cccc(CN2C(=O)CC3(C)CCCC(c4csc(NS(=O)(=O)c5ccc(F)c(F)c5)n4)=C23)c1 (stereo not drawn) [Compound B47, 3,4-Difluoro-N-{4-[1-(3-methoxy-benzyl)-3a-methyl-2-oxo-2,3,3a,4,5,6-hexahydro-1H-indol-7-yl]-thiazol-2-yl}-benzenesulfonamide]"
